One assay concerns the target T1, hVR1 (Homo sapiens, UniProt Q8NER1).
T1 construct: expressed in transfected cells; host or cells: CHO K1 cells (ECACC)
Kind of assay: Functional investigation at the vanilloid receptor (VR1), FLIPR Ca2+ influx assay, Method II, hVR1. Format: cell-based. The settings on record: for IC50: suppression of capsaicin-induced Ca2+ influx; for inhibition at 10 µM: test substance 10 μM, CHO K1 cells transfected with VR1, inhibition of Ca2+ influx after 100 nM capsaicin, compared to maximum inhibition with 10 μM capsazepin. The source says:
(§1) The agonistic and/or antagonistic effects of the test substances on the vanilloid receptor (VR1) can be determined with the following assay. According to this assay the Ca^2+ influx through the channel is quantified by means of a Ca^2+-sensitive dye (Type Fluo-4, Molecular Probes, Europe BV, Leyden, The Netherlands) in the Fluorescent Imaging Plate Reader (FLIPR, Molecular Devices, Sunnyvale, USA).
(§2) Chinese hamster ovary cells (CHO K1-cells, European Collection of Cell Cultures (ECACC) Great Britain) are stably transfected with the VR1 gene. For functional studies, these cells are plated on poly-D-lysine-coated, black 96-well plates with clear bottom (BD Biosciences, Heidelberg, Germany) at a density of 25 000 cells/well. The cells are incubated overnight at 37° C. and 5% CO2 in a culture medium (Nutrient Mixture Ham's F12, 10 vol. % FCS (fetal calf serum), 18 μg/ml L-proline). On the next day the cells are incubated for 30 minutes at 37° C. with Fluo-4 (Fluo-4 2 μM, Pluronic F127 0.01 vol. %, Molecular Probes) in HBSS (Hank's buffered saline solution), (Gibco Invitrogen GmbH, Karlsruhe, Germany). Then the plates are washed 3 times with HBSS buffer and, after further incubation of 15 minutes at room temperature, they are used for Ca^2+ measurement in the FLIPR. The Ca^2+-dependent fluorescence is measured before and after adding the test substances (wavelength λex=^488 nm, λem=540 nm). Quantification is based on measurement of the maximum fluorescence intensity (FC, fluorescence counts) over time.
(§3) The FLIPR protocol comprises 2 additions of the substance. First the test substances (10 μM) are pipetted onto the cells and the Ca^2+ influx is compared with the control (capsaicin 10 μM) (% activation relative to the Ca^2+ signal after adding 10 μM capsaicin). After incubation for 5 minutes, 100 nM capsaicin is applied and the influx of Ca^2+ is determined again.
(§4) Desensitizing agonists and antagonists led to suppression of Ca^2+ influx. The % inhibition is calculated compared to the maximum inhibition attainable with 10 μM capsazepin.

Another assay addresses T2, rVR1 (Rattus norvegicus, UniProt O35433).
T2 construct: expressed in transfected cells; host or cells: CHO K1 cells (ECACC)
Kind of assay: Functional investigation at the vanilloid receptor (VR1), FLIPR Ca2+ influx assay, Method II, rVR1. Format: cell-based. The settings on record: for IC50: suppression of capsaicin-induced Ca2+ influx; for rVR1 10 μM Stimulation / inhibition at 10 µM: test substance 10 μM; for rVR1 10 μM Stimulation: % activation relative to the Ca2+ signal after adding 10 μM capsaicin; for inhibition at 10 µM: inhibition of Ca2+ influx after 100 nM capsaicin, compared to maximum inhibition with 10 μM capsazepin.
Text: as §1, §2, §3, §4

T2 sequence (O35433 whole entry): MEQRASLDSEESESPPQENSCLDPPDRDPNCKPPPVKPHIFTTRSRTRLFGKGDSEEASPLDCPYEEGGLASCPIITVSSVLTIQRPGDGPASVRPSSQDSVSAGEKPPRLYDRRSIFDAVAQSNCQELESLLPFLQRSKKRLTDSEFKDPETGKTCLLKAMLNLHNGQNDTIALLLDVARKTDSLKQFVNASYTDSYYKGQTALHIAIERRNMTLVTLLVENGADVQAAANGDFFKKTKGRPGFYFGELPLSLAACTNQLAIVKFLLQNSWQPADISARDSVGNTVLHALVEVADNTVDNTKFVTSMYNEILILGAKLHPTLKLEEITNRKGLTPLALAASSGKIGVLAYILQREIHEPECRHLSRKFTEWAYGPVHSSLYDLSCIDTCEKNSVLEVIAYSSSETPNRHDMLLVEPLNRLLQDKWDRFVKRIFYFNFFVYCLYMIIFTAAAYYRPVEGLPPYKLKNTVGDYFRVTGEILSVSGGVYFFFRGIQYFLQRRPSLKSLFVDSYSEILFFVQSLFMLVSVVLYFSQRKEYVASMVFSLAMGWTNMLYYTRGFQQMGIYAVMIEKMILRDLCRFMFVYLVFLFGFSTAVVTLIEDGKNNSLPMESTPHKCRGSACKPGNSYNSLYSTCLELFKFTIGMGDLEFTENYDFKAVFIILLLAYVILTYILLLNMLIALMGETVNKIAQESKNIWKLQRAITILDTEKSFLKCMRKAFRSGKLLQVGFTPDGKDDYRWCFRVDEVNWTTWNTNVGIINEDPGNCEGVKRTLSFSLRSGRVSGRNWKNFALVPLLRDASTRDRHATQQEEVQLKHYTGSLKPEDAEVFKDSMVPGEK
T1 sequence (Q8NER1 whole entry): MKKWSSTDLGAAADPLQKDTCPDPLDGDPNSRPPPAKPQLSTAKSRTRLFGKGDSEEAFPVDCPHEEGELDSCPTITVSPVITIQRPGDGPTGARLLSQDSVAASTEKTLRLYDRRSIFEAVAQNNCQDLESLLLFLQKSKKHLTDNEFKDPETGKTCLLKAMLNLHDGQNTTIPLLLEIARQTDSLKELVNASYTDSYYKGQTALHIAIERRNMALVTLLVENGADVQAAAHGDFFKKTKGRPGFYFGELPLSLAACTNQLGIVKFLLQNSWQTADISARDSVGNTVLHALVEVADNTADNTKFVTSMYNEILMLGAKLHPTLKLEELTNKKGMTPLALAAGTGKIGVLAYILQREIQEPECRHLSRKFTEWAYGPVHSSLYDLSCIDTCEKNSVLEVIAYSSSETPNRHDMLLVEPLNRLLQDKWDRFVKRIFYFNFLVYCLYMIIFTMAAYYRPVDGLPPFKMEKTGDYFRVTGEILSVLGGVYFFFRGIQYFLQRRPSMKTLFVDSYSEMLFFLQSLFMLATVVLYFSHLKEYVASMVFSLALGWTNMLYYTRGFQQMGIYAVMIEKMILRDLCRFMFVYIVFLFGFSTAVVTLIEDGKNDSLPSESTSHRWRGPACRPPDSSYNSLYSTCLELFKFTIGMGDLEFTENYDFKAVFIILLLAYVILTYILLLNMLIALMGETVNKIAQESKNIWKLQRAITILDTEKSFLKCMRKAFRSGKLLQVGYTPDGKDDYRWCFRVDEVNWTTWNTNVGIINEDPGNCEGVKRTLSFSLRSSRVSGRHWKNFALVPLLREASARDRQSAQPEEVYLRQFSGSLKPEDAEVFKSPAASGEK

Regarding `CCCCCCCCCCCCCCCCOCC(COC(=O)NC(=O)NCC[N+](C)(C)C)OC` (centres unmarked) [compound 14, 4-(Trimethylamino-1-ethyl)allophanic acid 3-hexadecyloxy-2-methoxypropan-1-yl ester iodide], on hVR1, the IC50 was determined as 2.4 µM and the inhibition at 10 µM came out at 93.1%. In addition, on rVR1, 1.15 µM corresponded to half-maximal inhibition (IC50), the “rVR1 10 μM Stimulation” value is 0.09% and the inhibition at 10 µM was 95.5%.
As for `CCCCCCCCCCCCCCCCOC(=O)NC(=O)NCC[N+]1(C)CCCC1` [compound 2, 4-(Pyrrolidinium-1-ethyl)allophanic acid hexadecyl ester iodide], on hVR1, the IC50 worked out at 0.92 µM and the inhibition at 10 µM stood at 88.9%. Moreover, on rVR1, the IC50 is 1.23 µM, the “rVR1 10 μM Stimulation” value is given as −0.02% and the inhibition at 10 µM came out at 87.1%.
With `CCCCCCCCCCCCCCCCOC[C@@H]1CC[C@H](COC(=O)NC(=O)NCC[N+](C)(C)C)O1` (relative stereo) [compound 13, 4-(Trimethylamino-1-ethyl)allophanic acid (cis-5-hexadecyloxymethyltetrahydrofuran-2-yl)methyl ester iodide], on hVR1, the IC50 amounted to 1.1 µM and the inhibition at 10 µM was 80.8%. Also, at rVR1, 1.3 µM corresponded to half-maximal inhibition (IC50), the “rVR1 10 μM Stimulation” value came out at 0.36% and the inhibition at 10 µM was 92.1%.
In the case of `CCCCCCCCCCCCCCCCOCC1(COC(=O)NC(=O)NCC[N+](C)(C)C)CCCO1` (centres unmarked) [compound 16, 4-(Trimethylamino-1-ethyl)allophanic acid (2-hexadecyloxymethyltetrahydrofuran-2-yl)methyl ester iodide], on hVR1, the IC50 came out at 1.7 µM and the inhibition at 10 µM came to 68.6%. In addition, at rVR1, the IC50 stood at 2.9 µM, the “rVR1 10 μM Stimulation” value is listed as 0.58% and the inhibition at 10 µM came out at 99.3%.
For the compound `CCCCCCCCCCCCOC(=O)NC(=O)NCC[N+](C)(C)C` [compound 1, 4-(Trimethylamino-1-ethyl)allophanic acid dodecyl ester iodide], on hVR1, the IC50 is 2.43 µM and the inhibition at 10 µM came to 95.4%. In addition, on rVR1, the midpoint of inhibition, the IC50, lay at 2.1 µM; the “rVR1 10 μM Stimulation” value was determined as 0.55%; the inhibition at 10 µM was 103%.
`CCCCCCCCCCCCCCCCOC(=O)NC(=O)NCCC[N+](C)(C)C` [compound 3, 4-(Trimethylamino-1-propyl)allophanic acid hexadecyl ester iodide]: at hVR1, the IC50 was 4.27 µM and the inhibition at 10 µM was found to be 56.9%. Further, on rVR1, the IC50 is 1.27 µM, the “rVR1 10 μM Stimulation” value was −0.73% and the inhibition at 10 µM was 94.4%.
With `CCCCCCCCCCCCCCCCOC(=O)NC(=O)NCC[N+](C)(C)C` [compound 15, 4-(Trimethylamino-1-ethyl)allophanic acid hexadecyl ester iodide], at hVR1, the IC50 came to 3.45 µM and the inhibition at 10 µM was determined as 101%. Besides, on rVR1, the IC50 was 2.95 µM, the “rVR1 10 μM Stimulation” value is listed as −1.01% and the inhibition at 10 µM turned out to be 109%.

These data come from patent publication US8173700B2, “Salts of substituted allophanates and their use in drugs” (Gruenenthal GmbH, priority 2005, dated 2012).
